Results reported in BindingDB's records for doi:10.1021/jm00041a011 (Ohio State University, 1994).
“And” between values parts separate entries of the source, which are not always exact repeats. Equal entries are not always repeated. Structures can show the parent of a compound that is named as a salt.

Assay: Tested for its ability to antagonize epinephrine induced primary wave aggregation in human platelets at alpha-2A-adrenergic receptor sites.

SMILES | IC50
OC(c1cnc[nH]1)(c1cccc2ccccc12)C(F)(F)F (stereo unspecified) [2,2,2-Trifluoro-1-(1H-imidazol-4-yl)-1-naphthalen-1-yl-ethanol; hydrochloride] | > 300 µM
CC(c1cnc[nH]1)c1cccc2ccccc12 (stereo unspecified) [4-(1-Naphthalen-1-yl-ethyl)-1H-imidazole] | 12.3 µM and 9.1 µM
COC(c1cnc[nH]1)c1cccc2ccccc12 (stereo unspecified) [4-(Methoxy-naphthalen-1-yl-methyl)-1H-imidazole; hydrochloride] | 380 µM
c1ccc2c(Cc3cnc[nH]3)cccc2c1 [4-Naphthalen-1-ylmethyl-1H-imidazole; hydrochloride] | 3 µM
OC(c1cnc[nH]1)c1cccc2ccccc12 (stereo unspecified) [(1H-Imidazol-4-yl)-naphthalen-1-yl-methanol; hydrochloride] | 61.9 µM
O=C(c1cnc[nH]1)c1cccc2ccccc12 [(1H-Imidazol-4-yl)-naphthalen-1-yl-methanone; oxalic acid] | 580 µM
